Results taken from ChEMBL document CHEMBL4177735, “Design, synthesis and pharmacological evaluation of new acyl sulfonamides as potent and selective Bcl-2 inhibitors” (Bioorg Med Chem, 2018).

Assays:
[1] = target: Apoptosis regulator Bcl-2 (Homo sapiens, UniProt P10415); assay: Displacement of Bax-derived peptide from Bcl-2 (unknown origin) by fluorescence polarization assay
Bcl-2-like protein 1 = Bcl-2-like protein 1 (Homo sapiens, UniProt Q07817); assay: Displacement of Bad-derived peptide from Bcl-XL (unknown origin) by fluorescence polarization assay
Sequence of Bcl-2-like protein 1 (Q07817 whole entry): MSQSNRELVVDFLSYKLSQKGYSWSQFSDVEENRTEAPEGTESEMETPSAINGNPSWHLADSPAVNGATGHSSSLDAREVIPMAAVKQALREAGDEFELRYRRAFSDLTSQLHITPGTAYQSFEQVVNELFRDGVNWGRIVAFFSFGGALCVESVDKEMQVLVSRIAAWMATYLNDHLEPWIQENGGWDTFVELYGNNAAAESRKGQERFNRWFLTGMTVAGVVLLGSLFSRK

Homo sapiens = species on record: Homo sapiens; assay: Selectivity factor, ratio of IC50 for Bad-derived peptide from Bcl-XL (unknown origin) to IC50 for displacement of Bax-derived peptide from Bcl-2 (unknown origin)

Sequence of Apoptosis regulator Bcl-2 (P10415 whole entry): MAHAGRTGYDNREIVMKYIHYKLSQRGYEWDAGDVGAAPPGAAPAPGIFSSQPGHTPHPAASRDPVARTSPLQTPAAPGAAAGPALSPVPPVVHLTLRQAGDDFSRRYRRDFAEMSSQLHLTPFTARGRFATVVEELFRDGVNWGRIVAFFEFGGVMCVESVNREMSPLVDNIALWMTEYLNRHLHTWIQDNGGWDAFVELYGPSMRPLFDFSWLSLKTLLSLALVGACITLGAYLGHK

Row | SMILES | IC50 [1] | IC50 (Bcl-2-like protein 1) | Ratio IC50 (Homo sapiens)
1 | CC1(C)CCC(c2ccc(Cl)cc2)=C(CN2CCN(c3ccc(C(=O)NS(=O)(=O)c4ccc(NC5(CN6CCOCC6)CC5)c(S(=O)(=O)C(F)(F)F)c4)cc3)CC2)C1 | 40.7 nM | 55.3 nM | 1.36
2 | CC1(C)CCC(c2ccc(Cl)cc2)=C(CN2CCN(c3ccc(C(=O)NS(=O)(=O)c4ccc(OCC5(CN6CCOCC6)COC5)c(S(=O)(=O)C(F)(F)F)c4)cc3)CC2)C1 | 14.5 nM | 49.3 nM | 3.4
3 | CN1CCN(S(=O)(=O)NC(=O)c2ccc(N3CCN(CC4=C(c5ccc(Cl)cc5)CCC(C)(C)C4)CC3)cc2)CC1 | 168 nM | > 1000 nM | > 5.93
4 | CC1(C)CCC(c2ccc(Cl)cc2)=C(CN2CCN(c3ccc(C(=O)NS(=O)(=O)c4ccc(NC5(CN6CC(F)(F)C6)CC5)c(S(=O)(=O)C(F)(F)F)c4)cc3)CC2)C1 | 34.8 nM | 342 nM | 9.83
5 | CC1(C)CCC(c2ccc(Cl)cc2)=C(CN2CCN(c3ccc(C(=O)NS(=O)(=O)c4ccc(N[C@@H](CC5CC5)C(=O)N5CCOCC5)c(S(=O)(=O)C(F)(F)F)c4)cc3)CC2)C1 | 68.2 nM | 59.3 nM | 0.87
6 | CC1(C)CCC(c2ccc(Cl)cc2)=C(CN2CCN(c3ccc(C(=O)NS(=O)(=O)c4ccc(OCC5(CN6CC(F)(F)C6)COC5)c(S(=O)(=O)C(F)(F)F)c4)cc3)CC2)C1 | 17.3 nM | 105 nM | 6.06
7 | CC1(C)CCC(c2ccc(Cl)cc2)=C(CNC2(Cn3cnc4cc(C(=O)NS(=O)(=O)c5ccc(N[C@H](CCN6CCOCC6)CSc6ccccc6)c(S(=O)(=O)C(F)(F)F)c5)ccc43)CC2)C1 | 108 nM | 29.3 nM | 0.27
8 | Cn1ccc(S(=O)(=O)NC(=O)c2ccc(N3CCN(CC4=C(c5ccc(Cl)cc5)CCC(C)(C)C4)CC3)cc2)n1 | 67.4 nM | > 1000 nM | > 14.8
9 | CC1(C)CCC(c2ccc(Cl)cc2)=C(CN2CCN(c3ccc(C(=O)NS(=O)(=O)c4ccc(N[C@@H](CC5CC5)CN5CCOCC5)c(S(=O)(=O)C(F)(F)F)c4)cc3)CC2)C1 | 20.7 nM | 33.5 nM | 1.62
10 | CC1(C)CCC(c2ccc(Cl)cc2)=C(CN2CCN(c3ccc(C(=O)NS(C)(=O)=O)cc3)CC2)C1 | 495 nM | > 1000 nM | > 2.02
11 | CC1(C)CCC(c2ccc(Cl)cc2)=C(CN2CCc3sc(C(=O)NS(=O)(=O)c4ccc(N[C@H](CCN5CCOCC5)CSc5ccccc5)c(S(=O)(=O)C(F)(F)F)c4)cc3C2)C1 | 57.9 nM | 26.6 nM | 0.46
12 | CC1(C)CCC(c2ccc(Cl)cc2)=C(CN2CCc3cc(C(=O)NS(=O)(=O)c4ccc(N[C@H](CCN5CCOCC5)CSc5ccccc5)c(S(=O)(=O)C(F)(F)F)c4)ccc3C2)C1 | 12.6 nM | 14.6 nM | 1.15
13 | CC1(C)CCC(c2ccc(Cl)cc2)=C(CN2CCc3ccc(C(=O)NS(=O)(=O)c4ccc(N[C@H](CCN5CCOCC5)CSc5ccccc5)c(S(=O)(=O)C(F)(F)F)c4)cc3CC2)C1 | 193 nM | 25.6 nM | 0.13
14 | CC1(C)CCC(c2ccc(Cl)cc2)=C(CN2CCc3nc(C(=O)NS(=O)(=O)c4ccc(N[C@H](CCN5CCOCC5)CSc5ccccc5)c(S(=O)(=O)C(F)(F)F)c4)sc3C2)C1 | 38.1 nM | 13.2 nM | 0.35
15 | CN(CCO)c1ccc(S(=O)(=O)NC(=O)c2ccc(N3CCN(CC4=C(c5ccc(Cl)cc5)CCC(C)(C)C4)CC3)cc2)cc1S(=O)(=O)C(F)(F)F | 46 nM | 116 nM | 2.53
16 | CC1(C)CCC(c2ccc(Cl)cc2)=C(CNC2(Cn3cnc4ccc(C(=O)NS(=O)(=O)c5ccc(N[C@H](CCN6CCOCC6)CSc6ccccc6)c(S(=O)(=O)C(F)(F)F)c5)cc43)CC2)C1 | > 1000 nM | > 1000 nM | 
17 | CN(C)c1ccc(S(=O)(=O)NC(=O)c2ccc(N3CCN(CC4=C(c5ccc(Cl)cc5)CCC(C)(C)C4)CC3)cc2)cc1S(=O)(=O)C(F)(F)F | 65.1 nM | 218 nM | 3.34
18 | CC1(C)CCC(c2ccc(Cl)cc2)=C(CN2CCN(c3ccc(C(=O)NS(=O)(=O)c4ccc(N5CC(F)(F)C5)c(S(=O)(=O)C(F)(F)F)c4)cc3)CC2)C1 | 46.6 nM | 162 nM | 3.48
